In ChEMBL document CHEMBL1201862, “PubChem BioAssay data set” (2004):
The source made the active and inactive calls.

Tests used:
[1] = inhibitors of cytokine-induced nitrite release, dose response, cell-based, Griess absorbance, INS-1E, dry powder, set 3 (AID 488870); format: functional; conditions: Rattus norvegicus
INS1 [2] = experiment: inhibitors of cytokine-induced nitrite release, dose response, cell-based, Griess absorbance, INS-1E, dry powder (AID 488866); format: functional; conditions: Rattus norvegicus
INS1 [3] = experiment: inhibitors of cytokine-induced nitrite release, dose response, cell-based, Griess absorbance, INS-1E, dry powder, set 2 (AID 488868); format: functional; conditions: Rattus norvegicus
INS1 [4] = experiment: protection of INS-1E cells from cytokine death, dose response, ATP luminescence, dry powder (AID 488844); format: functional, cell-based; conditions: Rattus norvegicus
INS1 [5] = experiment: protection from cytokine-driven beta-cell apoptosis, dose response, JC-1 fluorescence, INS-1E, dry powder, set 2 (AID 488867); format: functional, cell-based; conditions: Rattus norvegicus
INS1 [6] = experiment: protection from cytokine-induced mitochondrial depolarization, dose response, cell-based, INS-1E, JC-1 fluorescence ratio, dry powder (AID 488931); format: functional; conditions: Rattus norvegicus
Phospholipase D1 = Phospholipase D1 (Homo sapiens, UniProt Q13393); experiment: PLD1 inhibitor potency in cells, dose response (AID 602151); format: functional;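 note: cellular PLD1 assay in Calu-1 cells stimulated with PMA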
Phospholipase D2 = Phospholipase D2 (Homo sapiens, UniProt O14939); experiment: PLD2 inhibitor potency in cells, dose response (AID 602147); format: functional;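 note: cellular assay in HEK293 cells overexpressing GFP-tagged PLD2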
[7] = A cell-based HTS for delayed death inhibitors of the malarial parasite plastid Measured in Microorganism System Using Plate Reader - 2126-02_Inhibitor_Dose_DryPowder_Activity.; format: functional, organism-based
[8] = A cell-based HTS for delayed death inhibitors of the malarial parasite plastid Measured in Microorganism System Using Plate Reader - 2126-01_Inhibitor_Dose_DryPowder_Activity.; format: functional, organism-based
[9] = Vero cell cytotoxicity, dose response, cytotoxicity control for M. tuberculosis growth inhibitor project, Vero cells, purified and synthesized compounds, set 4 (AID 504854); format: functional; conditions: Mycobacterium tuberculosis
[10] = molecular target: Protein kinase C delta type (Homo sapiens, UniProt Q05655); format: functional
[11] = molecular target: Calcium/calmodulin-dependent protein kinase type II subunit gamma (Homo sapiens, UniProt Q13555); format: functional
[12] = molecular target: Serine/threonine-protein kinase PAK 1 (Homo sapiens, UniProt Q13153); format: functional
[13] = molecular target: Calcium/calmodulin-dependent protein kinase type II subunit delta (Homo sapiens, UniProt Q13557); format: functional
[14] = molecular target: Casein kinase I isoform alpha (Homo sapiens, UniProt P48729); format: functional
[15] = molecular target: Serine/threonine-protein kinase TAO1 (Homo sapiens, UniProt Q7L7X3); format: functional
[16] = molecular target: Casein kinase I isoform delta (Homo sapiens, UniProt P48730); format: functional;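 note: measured as one member (CSNK1D) of a kinome panel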
[17] = molecular target: Calcium/calmodulin-dependent protein kinase type II subunit beta (Homo sapiens, UniProt Q13554); format: functional
[18] = molecular target: Latent membrane protein 1 (Human herpesvirus 4 (strain B95-8), UniProt P03230); experiment: TES1-eGFP NF-kB reporter inhibition versus Tet-On dsRED, dose response, selectivity assay for LMP1 NF-kB inhibitor project, imaging, HEK293T, dual-color eGFP/dsRED, cherry-picks (AID 588398); format: functional, cell-based
Aurora kinase A = Aurora kinase A (Homo sapiens, UniProt O14965); format: functional;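 note: value from the Navigating the Kinome kinase panel profiling, panel entry STK6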
[19] = molecular target: Vascular endothelial growth factor receptor 2 (Homo sapiens, UniProt P35968); format: functional
Aurora kinase B = Aurora kinase B (Homo sapiens, UniProt Q96GD4); format: functional
Sequence of Aurora kinase B (Q96GD4 whole entry): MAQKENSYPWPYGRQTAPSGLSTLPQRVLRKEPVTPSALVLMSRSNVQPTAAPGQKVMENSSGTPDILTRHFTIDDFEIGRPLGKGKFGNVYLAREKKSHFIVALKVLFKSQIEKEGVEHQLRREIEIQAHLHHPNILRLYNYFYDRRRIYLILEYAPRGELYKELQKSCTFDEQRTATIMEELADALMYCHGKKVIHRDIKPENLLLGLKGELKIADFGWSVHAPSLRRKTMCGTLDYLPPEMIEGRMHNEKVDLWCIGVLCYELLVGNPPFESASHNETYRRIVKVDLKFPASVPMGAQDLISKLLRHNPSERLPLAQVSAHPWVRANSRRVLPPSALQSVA

Sequence of Phospholipase D2 (O14939 whole entry): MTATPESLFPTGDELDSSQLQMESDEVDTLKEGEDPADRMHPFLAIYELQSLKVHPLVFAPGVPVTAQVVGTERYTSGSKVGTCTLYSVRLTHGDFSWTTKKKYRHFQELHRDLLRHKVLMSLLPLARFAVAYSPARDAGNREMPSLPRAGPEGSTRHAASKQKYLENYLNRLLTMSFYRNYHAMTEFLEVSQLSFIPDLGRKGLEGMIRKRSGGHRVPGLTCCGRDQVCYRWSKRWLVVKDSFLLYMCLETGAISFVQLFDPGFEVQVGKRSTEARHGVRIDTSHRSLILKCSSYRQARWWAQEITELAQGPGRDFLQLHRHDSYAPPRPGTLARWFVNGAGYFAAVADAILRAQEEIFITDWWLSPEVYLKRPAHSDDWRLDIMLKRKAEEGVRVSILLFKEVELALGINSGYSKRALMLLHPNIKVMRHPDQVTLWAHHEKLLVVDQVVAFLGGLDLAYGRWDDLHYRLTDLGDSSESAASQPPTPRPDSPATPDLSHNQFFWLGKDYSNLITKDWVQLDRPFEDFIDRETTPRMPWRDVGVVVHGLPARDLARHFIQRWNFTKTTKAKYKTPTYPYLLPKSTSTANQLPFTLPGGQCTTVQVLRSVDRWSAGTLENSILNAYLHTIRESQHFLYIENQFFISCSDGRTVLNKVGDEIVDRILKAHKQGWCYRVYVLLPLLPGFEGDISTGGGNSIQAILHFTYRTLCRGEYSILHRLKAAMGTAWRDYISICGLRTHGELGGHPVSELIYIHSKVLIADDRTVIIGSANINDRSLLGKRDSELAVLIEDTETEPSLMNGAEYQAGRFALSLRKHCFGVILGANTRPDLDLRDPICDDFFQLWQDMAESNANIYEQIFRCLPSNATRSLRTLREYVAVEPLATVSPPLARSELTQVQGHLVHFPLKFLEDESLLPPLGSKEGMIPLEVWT
Sequence of Calcium/calmodulin-dependent protein kinase type II subunit delta (Q13557 whole entry, canonical isoform): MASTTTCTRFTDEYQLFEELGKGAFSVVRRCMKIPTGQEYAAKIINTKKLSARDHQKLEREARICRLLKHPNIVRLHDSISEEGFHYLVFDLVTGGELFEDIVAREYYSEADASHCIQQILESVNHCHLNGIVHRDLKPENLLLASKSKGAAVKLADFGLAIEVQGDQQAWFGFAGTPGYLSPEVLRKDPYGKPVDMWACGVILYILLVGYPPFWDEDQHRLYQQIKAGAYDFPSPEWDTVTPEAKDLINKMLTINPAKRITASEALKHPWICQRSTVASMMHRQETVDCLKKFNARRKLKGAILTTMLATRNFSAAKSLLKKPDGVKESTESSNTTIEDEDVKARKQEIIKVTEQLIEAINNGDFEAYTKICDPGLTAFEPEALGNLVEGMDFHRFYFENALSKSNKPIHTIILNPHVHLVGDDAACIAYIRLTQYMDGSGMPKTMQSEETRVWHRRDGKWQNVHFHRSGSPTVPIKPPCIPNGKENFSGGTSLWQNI
Sequence of Latent membrane protein 1 (P03230 whole entry): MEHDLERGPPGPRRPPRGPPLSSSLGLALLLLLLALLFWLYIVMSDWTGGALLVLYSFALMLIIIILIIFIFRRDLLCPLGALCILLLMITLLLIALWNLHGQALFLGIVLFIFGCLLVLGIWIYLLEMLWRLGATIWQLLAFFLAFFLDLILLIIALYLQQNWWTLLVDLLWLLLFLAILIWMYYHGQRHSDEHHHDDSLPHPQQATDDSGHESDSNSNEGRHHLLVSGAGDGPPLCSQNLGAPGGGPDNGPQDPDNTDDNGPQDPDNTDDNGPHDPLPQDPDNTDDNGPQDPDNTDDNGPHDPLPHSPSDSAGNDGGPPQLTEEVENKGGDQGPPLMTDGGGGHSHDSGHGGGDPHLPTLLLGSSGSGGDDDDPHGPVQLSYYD
Sequence of Vascular endothelial growth factor receptor 2 (P35968 whole entry): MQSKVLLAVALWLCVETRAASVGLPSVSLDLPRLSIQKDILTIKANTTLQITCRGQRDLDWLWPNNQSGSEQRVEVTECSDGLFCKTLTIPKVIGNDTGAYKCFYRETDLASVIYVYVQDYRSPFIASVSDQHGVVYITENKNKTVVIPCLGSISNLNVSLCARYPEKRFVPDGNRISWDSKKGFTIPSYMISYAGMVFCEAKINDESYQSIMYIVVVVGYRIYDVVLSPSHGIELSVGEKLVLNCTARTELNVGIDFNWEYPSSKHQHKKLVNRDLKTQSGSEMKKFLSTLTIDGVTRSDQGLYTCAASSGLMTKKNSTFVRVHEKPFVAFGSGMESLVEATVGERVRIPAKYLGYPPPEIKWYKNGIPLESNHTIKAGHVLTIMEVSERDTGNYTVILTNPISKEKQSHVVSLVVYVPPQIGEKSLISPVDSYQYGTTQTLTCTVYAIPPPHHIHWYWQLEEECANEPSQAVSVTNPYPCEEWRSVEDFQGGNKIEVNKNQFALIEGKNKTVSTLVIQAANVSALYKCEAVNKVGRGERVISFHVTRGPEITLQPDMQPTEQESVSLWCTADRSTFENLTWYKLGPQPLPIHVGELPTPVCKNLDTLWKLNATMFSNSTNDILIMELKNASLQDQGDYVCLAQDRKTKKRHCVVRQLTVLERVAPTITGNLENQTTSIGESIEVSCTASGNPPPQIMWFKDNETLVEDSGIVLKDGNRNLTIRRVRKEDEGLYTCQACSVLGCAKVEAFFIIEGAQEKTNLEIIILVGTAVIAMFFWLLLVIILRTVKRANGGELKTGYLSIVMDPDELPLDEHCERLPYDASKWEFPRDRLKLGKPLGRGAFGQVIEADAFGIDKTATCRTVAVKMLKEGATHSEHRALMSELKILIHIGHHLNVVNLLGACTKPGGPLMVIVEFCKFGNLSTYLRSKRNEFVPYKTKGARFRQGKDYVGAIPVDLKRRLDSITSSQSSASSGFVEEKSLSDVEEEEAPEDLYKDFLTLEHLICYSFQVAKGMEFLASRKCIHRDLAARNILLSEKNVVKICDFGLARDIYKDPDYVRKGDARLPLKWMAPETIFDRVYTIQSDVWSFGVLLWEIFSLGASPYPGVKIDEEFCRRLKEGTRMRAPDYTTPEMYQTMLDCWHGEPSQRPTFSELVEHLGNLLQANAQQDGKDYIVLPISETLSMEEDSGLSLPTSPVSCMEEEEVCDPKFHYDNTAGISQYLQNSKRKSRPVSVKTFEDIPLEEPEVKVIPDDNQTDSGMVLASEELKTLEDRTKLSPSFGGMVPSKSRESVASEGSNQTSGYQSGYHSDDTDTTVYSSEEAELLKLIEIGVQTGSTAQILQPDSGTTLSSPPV
Sequence of Serine/threonine-protein kinase TAO1 (Q7L7X3 whole entry, canonical isoform): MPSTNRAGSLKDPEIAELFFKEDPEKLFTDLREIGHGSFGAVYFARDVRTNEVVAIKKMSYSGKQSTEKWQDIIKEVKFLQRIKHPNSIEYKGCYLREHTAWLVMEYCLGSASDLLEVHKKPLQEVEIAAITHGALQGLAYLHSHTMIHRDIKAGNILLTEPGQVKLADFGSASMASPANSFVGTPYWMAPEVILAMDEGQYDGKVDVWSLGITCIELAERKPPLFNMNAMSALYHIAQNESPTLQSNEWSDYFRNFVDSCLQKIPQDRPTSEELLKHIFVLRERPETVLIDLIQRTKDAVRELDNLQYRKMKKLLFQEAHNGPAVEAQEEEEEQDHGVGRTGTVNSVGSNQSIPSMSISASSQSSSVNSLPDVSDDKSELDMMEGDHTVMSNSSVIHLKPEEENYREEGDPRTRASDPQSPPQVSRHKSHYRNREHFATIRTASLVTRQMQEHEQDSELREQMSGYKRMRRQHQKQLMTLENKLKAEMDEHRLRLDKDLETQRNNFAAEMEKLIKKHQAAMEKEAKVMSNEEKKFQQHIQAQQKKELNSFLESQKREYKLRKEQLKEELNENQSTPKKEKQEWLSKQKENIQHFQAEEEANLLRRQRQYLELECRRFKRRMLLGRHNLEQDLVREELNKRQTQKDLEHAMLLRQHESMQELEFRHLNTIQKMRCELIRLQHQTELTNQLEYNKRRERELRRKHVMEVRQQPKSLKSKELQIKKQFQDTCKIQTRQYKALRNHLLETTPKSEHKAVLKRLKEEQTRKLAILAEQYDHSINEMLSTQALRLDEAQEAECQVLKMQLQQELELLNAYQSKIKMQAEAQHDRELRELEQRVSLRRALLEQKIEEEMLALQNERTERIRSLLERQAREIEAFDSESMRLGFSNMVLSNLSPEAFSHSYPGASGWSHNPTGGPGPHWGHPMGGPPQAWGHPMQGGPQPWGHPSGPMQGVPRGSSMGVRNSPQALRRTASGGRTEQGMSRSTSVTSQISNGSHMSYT
Sequence of Aurora kinase A (O14965 whole entry): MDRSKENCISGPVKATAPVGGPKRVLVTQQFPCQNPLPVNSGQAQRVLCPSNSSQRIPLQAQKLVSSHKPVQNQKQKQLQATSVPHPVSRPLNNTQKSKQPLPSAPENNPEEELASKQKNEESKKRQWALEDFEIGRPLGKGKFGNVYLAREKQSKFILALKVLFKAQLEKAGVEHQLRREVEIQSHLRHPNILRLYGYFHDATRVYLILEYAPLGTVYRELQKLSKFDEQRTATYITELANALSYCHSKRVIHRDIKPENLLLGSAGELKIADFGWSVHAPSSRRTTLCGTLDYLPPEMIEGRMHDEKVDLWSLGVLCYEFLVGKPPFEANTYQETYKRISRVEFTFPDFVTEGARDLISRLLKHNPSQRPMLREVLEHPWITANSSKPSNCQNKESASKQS

SMILES: C[C@@H]1CN([C@@H](C)CO)C(=O)c2cccc(NC(=O)Nc3cccc4ccccc34)c2O[C@H]1CN(C)S(=O)(=O)c1cccc(F)c1
- AC50 [1]: 22.9 µM (active)
- AC50 (INS1 [2]): 32.1 µM (active)
- AC50 (INS1 [3]): 29.6 µM (active)

SMILES: C[C@@H]1CN([C@@H](C)CO)C(=O)c2cccc(NC(=O)Nc3cccc4ccccc34)c2O[C@H]1CN(C)S(=O)(=O)c1ccc2c(c1)OCC2
- AC50 (INS1 [4]): 67.9 µM (active)
- AC50 [1]: 25.2 µM (active)
- AC50 (INS1 [5]): 29.8 µM (active)
- AC50 (INS1 [6]): > 195 µM (inactive)

SMILES: C[C@@H](CN1CCC(n2c(=O)[nH]c3ccccc32)CC1)NC(=O)CCc1ccc(F)cc1
- IC50 (Phospholipase D1): 0.26 µM (active)
- IC50 (Phospholipase D2): 9 µM (active)

SMILES: C[C@@H]1CN([C@@H](C)CO)C(=O)c2cc(NC(=O)Nc3ccccc3)ccc2O[C@@H](C)CCCCO[C@H]1CN(C)C(=O)OC(C)(C)C
- AC50 [7]: 1.37 µM (active)
- AC50 [8]: 2.41 µM (active)

SMILES: CCC(Sc1nc2ccccc2c(=O)[nH]1)C(=O)Nc1cccc(OC)c1 (centres undefined)
- CC50 [9]: > 100 µM (active)

SMILES: CCCCOc1ccccc1CCc1cccc2nc(N)nc(N)c12
- Ki [10]: 5.01 µM (active)
- Ki [11]: 3.16 µM (active)
- Ki [12]: 3.16 µM (active)
- Ki [13]: 5.01 µM (active)
- Ki [14]: 1.58 µM (active)
- Ki [15]: 10 µM (active)
- Ki [16]: 3.98 µM (active)
- Ki [17]: 2.51 µM (active)

SMILES: Cc1ccc(/C=N/NC(=O)c2cc(-c3ccccc3)nc3ccccc23)o1
- AC50 [18]: 27.2 µM (active)

SMILES: COc1cc(-c2ccc3c(c2)Nc2cc(OCCCCO)c(OC)cc2NC3=O)ccc1O
- Ki (Aurora kinase A): 1.26 µM (active)
- Ki [19]: 3.98 µM (active)
- Ki (Aurora kinase B): 1.58 µM (active)
